Experimental data taken from US9328112B2, “Tetracyclic CDK9 kinase inhibitors” (AbbVie Inc., priority 2014, dated 2016).

Legend:
CDK9/Cyclin T1 = CDK9/Cyclin T1 (Homo sapiens (Human), UniProt P50750); assay: CDK9 enzyme assay (LANCE ULight TR-FRET kinase assay); format: biochemical; conditions: 1000 μM ATP, 100 nM ULight MBP, kinase reaction 1 hour
How it was run: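 Human CDK9/Cyclin T1 phosphorylating 100 nM ULight-MBP with 1000 μM ATP in HEPES/MgCl2 buffer, 1 h reaction. Stopped with 20 mM EDTA plus 0.5 nM Eu anti-phospho-MBP antibody, incubated 1 h, read by TR-FRET (ex 320 nm, em 615/665 nm).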

H929 cells = assay: Cell viability assay (Cell TiterGlo); format: cell-based; conditions: Homo sapiens, NCI-H929, 24 hours at 37° C., Cell TiterGlo luminescence
Description: The cell viability assay was performed using H929 cells. Cells were seeded in 96-well plates at 10,000 cells/well and, after overnight incubation, treated with compounds in a dose response of 3-fold dilutions from 10 μM to 0.005 μM ([…], 0.1% final DMSO concentration). After 24 hours at 37° C., cell viability was measured using Cell TiterGlo reagent (Promega) with a luminescence reader.

Sequence of CDK9/Cyclin T1 (P50750 whole entry): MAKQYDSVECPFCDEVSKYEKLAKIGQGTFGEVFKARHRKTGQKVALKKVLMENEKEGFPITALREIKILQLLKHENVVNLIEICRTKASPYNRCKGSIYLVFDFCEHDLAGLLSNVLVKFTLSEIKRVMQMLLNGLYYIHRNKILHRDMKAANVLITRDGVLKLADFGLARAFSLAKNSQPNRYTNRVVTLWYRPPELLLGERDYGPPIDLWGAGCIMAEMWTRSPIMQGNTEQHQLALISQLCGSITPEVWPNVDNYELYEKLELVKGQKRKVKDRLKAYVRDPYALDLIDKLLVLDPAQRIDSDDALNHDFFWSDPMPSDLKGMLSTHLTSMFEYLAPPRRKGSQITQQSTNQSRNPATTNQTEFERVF
Sequence of CDK9/Cyclin T1 (O60563 whole entry partner): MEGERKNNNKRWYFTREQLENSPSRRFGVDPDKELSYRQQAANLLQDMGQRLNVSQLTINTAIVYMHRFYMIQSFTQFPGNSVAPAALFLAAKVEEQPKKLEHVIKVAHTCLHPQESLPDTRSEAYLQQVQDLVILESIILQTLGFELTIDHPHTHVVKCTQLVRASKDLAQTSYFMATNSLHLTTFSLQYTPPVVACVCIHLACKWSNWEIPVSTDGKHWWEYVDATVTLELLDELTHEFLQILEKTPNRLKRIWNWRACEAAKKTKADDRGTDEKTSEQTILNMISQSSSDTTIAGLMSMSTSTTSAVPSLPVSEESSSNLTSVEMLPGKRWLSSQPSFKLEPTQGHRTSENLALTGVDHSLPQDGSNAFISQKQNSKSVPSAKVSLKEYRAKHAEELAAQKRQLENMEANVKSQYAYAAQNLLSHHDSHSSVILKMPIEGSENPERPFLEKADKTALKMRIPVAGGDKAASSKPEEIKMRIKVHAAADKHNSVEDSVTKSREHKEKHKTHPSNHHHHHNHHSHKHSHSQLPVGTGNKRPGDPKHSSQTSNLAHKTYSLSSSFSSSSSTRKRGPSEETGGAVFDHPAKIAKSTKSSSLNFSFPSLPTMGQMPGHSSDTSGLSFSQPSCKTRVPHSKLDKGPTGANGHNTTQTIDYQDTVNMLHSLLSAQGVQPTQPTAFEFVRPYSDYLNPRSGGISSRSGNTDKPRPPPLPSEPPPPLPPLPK

Row | SMILES | IC50 (CDK9/Cyclin T1) [µM] | IC50 (H929 cells) [µM]
1 | CN1Cc2c(C3=CCN([C@H]4CC[C@@H](CC(=O)O)CC4)CC3)[nH]c3ncc(F)c(c23)-c2ccccc21 [Example 182, {cis-4-[4-(1-fluoro-7-methyl-6,7-dihydro-4H-3,4,7-triazadibenzo[cd,f]azulen-5-yl)-3,6-dihydropyridin-1(2H)-yl]cyclohexyl}acetic acid] | 0.071 | 0.01
2 | CN(C)C(=O)CN1[C@H]2CC[C@@H]1C=C(c1[nH]c3nccc4c3c1CN(C)c1ccc(F)cc1-4)C2 [Example 55, 2-[(1R,5S)-3-(10-fluoro-7-methyl-6,7-dihydro-4H-3,4,7-triazadibenzo[cd,f]azulen-5-yl)-8-azabicyclo[3.2.1]oct-2-en-8-yl]-N,N-dimethylacetamide] | 0.16 | 0.15
3 | CN1c2ccc(F)cc2-c2ccnc3[nH]c(C4=CCNCC4)c(c23)C1C(=O)O (stereo not shown) [Example 33, 10-fluoro-7-methyl-5-(1,2,3,6-tetrahydropyridin-4-yl)-6,7-dihydro-4H-3,4,7-triazadibenzo[cd,f]azulene-6-carboxylic acid] | 0.54 | 0.15
4 | CN1Cc2c(C3=CCNCC3)[nH]c3ncc(F)c(c23)-c2cc(F)ccc21 [Example 48, 1,10-difluoro-7-methyl-5-(1,2,3,6-tetrahydropyridin-4-yl)-6,7-dihydro-4H-3,4,7-triazadibenzo[cd,f]azulene] | 0.027 | 0.02
5 | CN1Cc2c(C3=CCN(S(C)(=O)=O)CC3)[nH]c3nccc(c23)-c2cc(F)c(F)cc21 [Example 131, 9,10-difluoro-7-methyl-5-[1-(methylsulfonyl)-1,2,3,6-tetrahydropyridin-4-yl]-6,7-dihydro-4H-3,4,7-triazadibenzo[cd,f]azulene] | 0.036 | 0.079
6 | CN1Cc2c(C3=CCN(CCS(=O)(=O)N(C)C)CC3)[nH]c3nccc(c23)-c2cc(F)ccc21 [Example 178, 2-[4-(10-fluoro-7-methyl-6,7-dihydro-4H-3,4,7-triazadibenzo[cd,f]azulen-5-yl)-3,6-dihydropyridin-1(2H)-yl]-N,N-dimethylethanesulfonamide] | 0.025 | 0.04
7 | CN1Cc2c(C3=CCN([C@H]4CC[C@H](C(=O)O)CC4)CC3)[nH]c3ncc(F)c(c23)-c2ccccc21 [Example 181, trans-4-[4-(1-fluoro-7-methyl-6,7-dihydro-4H-3,4,7-triazadibenzo[cd,f]azulen-5-yl)-3,6-dihydropyridin-1(2H)-yl]cyclohexanecarboxylic acid] | 0.063 | 0.012
8 | CN1Cc2c(C3=CCN(CCS(N)(=O)=O)CC3)[nH]c3nccc(c23)-c2cc(F)ccc21 [Example 179, 2-[4-(10-fluoro-7-methyl-6,7-dihydro-4H-3,4,7-triazadibenzo[cd,f]azulen-5-yl)-3,6-dihydropyridin-1(2H)-yl]ethanesulfonamide] | 0.024 | 0.064
9 | CN1Cc2c(C3=CCN(S(C)(=O)=O)CC3)[nH]c3nccc(c23)-c2cccnc21 [Example 138, 7-methyl-5-[1-(methylsulfonyl)-1,2,3,6-tetrahydropyridin-4-yl]-6,7-dihydro-4H-3,4,7,8-tetraazadibenzo[cd,f]azulene] | 0.069 | 0.18
10 | CN(C)C(=O)CN1C2C=C(c3[nH]c4nccc5c4c3CN(C)c3ccc(F)cc3-5)CC1CCC2 (stereo not shown) [Example 101, 2-[3-(10-fluoro-7-methyl-6,7-dihydro-4H-3,4,7-triazadibenzo[cd,f]azulen-5-yl)-9-azabicyclo[3.3.1]non-2-en-9-yl]-N,N-dimethylacetamide] | 0.11 | 0.091
11 | CN1Cc2c(C3=CC4CCCC(C3)N4CC(=O)N3CC(O)C3)[nH]c3nccc(c23)-c2cc(F)ccc21 (stereo not shown) [Example 105, 2-[3-(10-fluoro-7-methyl-6,7-dihydro-4H-3,4,7-triazadibenzo[cd,f]azulen-5-yl)-9-azabicyclo[3.3.1]non-2-en-9-yl]-1-(3-hydroxyazetidin-1-yl)ethanone] | 0.098 | 0.19
12 | CN1Cc2c(C3=CCNCC3)[nH]c3nccc(c23)-c2cc(F)c(F)cc21 [Example 144, 9,10-difluoro-7-methyl-5-(1,2,3,6-tetrahydropyridin-4-yl)-6,7-dihydro-4H-3,4,7-triazadibenzo[cd,f]azulene] | 0.029 | 0.007
13 | CC[C@H]1c2c(C3=CCN([C@H]4C[C@@H](C(=O)O)C4)CC3)[nH]c3nccc(c23)-c2cc(F)ccc2N1C [Example 187, cis-3-{4-[(6S)-6-ethyl-10-fluoro-7-methyl-6,7-dihydro-4H-3,4,7-triazadibenzo[cd,f]azulen-5-yl]-3,6-dihydropyridin-1(2H)-yl}cyclobutanecarboxylic acid] | 0.11 | 0.015
14 | CC[C@H]1c2c(C3=CCNCC3)[nH]c3nccc(c23)-c2cc(F)ccc2N1C [Example 142, (6S)-6-ethyl-10-fluoro-7-methyl-5-(1,2,3,6-tetrahydropyridin-4-yl)-6,7-dihydro-4H-3,4,7-triazadibenzo[cd,f]azulene] | 0.03 | 0.005

Continued, values first:

Row | IC50 (CDK9/Cyclin T1) [µM] | IC50 (H929 cells) [µM] | SMILES
15 | 0.056 | 0.17 | CN1Cc2c(C3=CCC(N[C@H](C(=O)O)c4ccccc4)CC3)[nH]c3nccc(c23)-c2cc(F)ccc21 (stereo partly drawn) [Example 32, (2S)-{[4-(10-fluoro-7-methyl-6,7-dihydro-4H-3,4,7-triazadibenzo[cd,f]azulen-5-yl)cyclohex-3-en-1-yl]amino}(phenyl)acetic acid]
16 | 0.8 | 3.3 | CS(=O)(=O)N1CC=C(c2[nH]c3nccc4c3c2CN(CC2CCOCC2)c2ccc(F)cc2-4)CC1 [Example 7, 10-fluoro-5-[1-(methylsulfonyl)-1,2,3,6-tetrahydropyridin-4-yl]-7-(tetrahydro-2H-pyran-4-ylmethyl)-6,7-dihydro-4H-3,4,7-triazadibenzo[cd,f]azulene]
17 | 0.13 | 0.16 | CN1Cc2c(C3=CCN(C4CCC(C(C)(C)C(=O)O)CC4)CC3)[nH]c3nccc(c23)-c2cc(F)ccc21 (stereo not shown) [Example 185, 2-{4-[4-(10-fluoro-7-methyl-6,7-dihydro-4H-3,4,7-triazadibenzo[cd,f]azulen-5-yl)-3,6-dihydropyridin-1(2H)-yl]cyclohexyl}-2-methylpropanoic acid]
18 | 0.13 | 0.19 | CN1Cc2c(C3=CCCN(C4CCC(=CC(=O)O)CC4)CC3)[nH]c3nccc(c23)-c2cc(F)ccc21 (stereo not shown) [Example 184, {4-[4-(10-fluoro-7-methyl-6,7-dihydro-4H-3,4,7-triazadibenzo[cd,f]azulen-5-yl)-2,3,6,7-tetrahydro-1H-azepin-1-yl]cyclohexylidene}acetic acid]
19 | 0.4 | 0.46 | CN1Cc2c(C3CCNCC3)[nH]c3nccc(c23)-c2cc(F)ccc21 [Example 21, 10-fluoro-7-methyl-5-(piperidin-4-yl)-6,7-dihydro-4H-3,4,7-triazadibenzo[cd,f]azulene]
20 | 0.89 | 1.7 | CN(CCO)C(=O)CN1CC=C(c2[nH]c3nccc4c3c2CN(C)c2ccc(F)cc2-4)C(C)(C)C1 [Example 116, 2-[4-(10-fluoro-7-methyl-6,7-dihydro-4H-3,4,7-triazadibenzo[cd,f]azulen-5-yl)-3,3-dimethyl-3,6-dihydropyridin-1(2H)-yl]-N-(2-hydroxyethyl)-N-methylacetamide]
21 | 0.07 | 0.009 | CN1Cc2c(C3=CCN(CC(=O)N4CCC[C@H]4CO)CC3)[nH]c3nccc(c23)-c2cc(F)ccc21 [Example 17, 2-[4-(10-fluoro-7-methyl-6,7-dihydro-4H-3,4,7-triazadibenzo[cd,f]azulen-5-yl)-3,6-dihydropyridin-1(2H)-yl]-1-[(2S)-2-(hydroxymethyl)pyrrolidin-1-yl]ethanone]
22 | 0.058 | 0.021 | CN1Cc2c(C3=CCN([C@H]4CC[C@@H](CC(=O)O)CC4)CC3)[nH]c3nccc(c23)-c2cc(F)c(F)cc21 [Example 136, {cis-4-[4-(9,10-difluoro-7-methyl-6,7-dihydro-4H-3,4,7-triazadibenzo[cd,f]azulen-5-yl)-3,6-dihydropyridin-1(2H)-yl]cyclohexyl}acetic acid]
23 | 1.2 | 2.6 | CN1Cc2c(C3=CCN(CC(=O)N(C)C4CC(O)C4)CC3(C)C)[nH]c3nccc(c23)-c2cc(F)ccc21 (stereo not shown) [Example 118, 2-[4-(10-fluoro-7-methyl-6,7-dihydro-4H-3,4,7-triazadibenzo[cd,f]azulen-5-yl)-3,3-dimethyl-3,6-dihydropyridin-1(2H)-yl]-N-(3-hydroxycyclobutyl)-N-methylacetamide]
24 | 0.041 | 0.022 | CNC(=O)N1CC2C=C(c3[nH]c4nccc5c4c3CN(C)c3ccc(F)cc3-5)CC2C1 (stereo not shown) [Example 76, 5-(10-fluoro-7-methyl-6,7-dihydro-4H-3,4,7-triazadibenzo[cd,f]azulen-5-yl)-N-methyl-3,3a,4,6a-tetrahydrocyclopenta[c]pyrrole-2(1H)-carboxamide]
25 | 0.091 | 0.21 | CN(CCO)C(=O)CN1CCC(c2[nH]c3nccc4c3c2CN(C)c2ccc(F)cc2-4)CC1 [Example 27, 2-[4-(10-fluoro-7-methyl-6,7-dihydro-4H-3,4,7-triazadibenzo[cd,f]azulen-5-yl)piperidin-1-yl]-N-(2-hydroxyethyl)-N-methylacetamide]
26 | 0.048 | 0.088 | CN1Cc2c(C3=CCN([C@H]4CC[C@@H](CC(=O)O)CC4)CC3)[nH]c3nccc(c23)-c2cc(F)ccc21 [Example 124, {cis-4-[4-(10-fluoro-7-methyl-6,7-dihydro-4H-3,4,7-triazadibenzo[cd,f]azulen-5-yl)-3,6-dihydropyridin-1(2H)-yl]cyclohexyl}acetic acid]
